Experiments:
[1] = molecular target: T1, hLIFR (recombinant human LIFR, His Tag) (Homo sapiens, UniProt P42702); test: AlphaScreen, inhibition of LIFR/LIF binding
T1 sequence (P42702 45-833 limits assumed): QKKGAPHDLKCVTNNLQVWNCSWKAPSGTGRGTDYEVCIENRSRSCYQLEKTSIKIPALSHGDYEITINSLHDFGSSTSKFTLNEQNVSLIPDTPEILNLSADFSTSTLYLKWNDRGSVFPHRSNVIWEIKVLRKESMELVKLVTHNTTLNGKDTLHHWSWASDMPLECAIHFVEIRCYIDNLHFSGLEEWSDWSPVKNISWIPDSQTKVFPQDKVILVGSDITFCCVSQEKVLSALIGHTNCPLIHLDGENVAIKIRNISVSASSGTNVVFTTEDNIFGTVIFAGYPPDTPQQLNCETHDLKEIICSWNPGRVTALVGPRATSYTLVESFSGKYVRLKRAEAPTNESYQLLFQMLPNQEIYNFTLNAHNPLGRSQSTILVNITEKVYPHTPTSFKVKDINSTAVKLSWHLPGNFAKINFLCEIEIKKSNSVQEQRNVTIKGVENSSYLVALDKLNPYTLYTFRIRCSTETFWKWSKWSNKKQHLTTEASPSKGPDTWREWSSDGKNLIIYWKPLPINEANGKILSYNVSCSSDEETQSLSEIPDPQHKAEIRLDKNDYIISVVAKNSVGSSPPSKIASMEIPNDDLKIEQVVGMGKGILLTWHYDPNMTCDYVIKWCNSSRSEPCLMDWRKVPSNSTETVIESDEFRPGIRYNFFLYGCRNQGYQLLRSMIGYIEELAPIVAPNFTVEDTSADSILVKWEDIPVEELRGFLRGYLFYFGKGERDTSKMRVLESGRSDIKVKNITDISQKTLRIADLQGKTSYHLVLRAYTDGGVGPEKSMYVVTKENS

[2] = molecular target: T2, hLIFR and CD130 (IL6ST); LIFR/gp130 (Homo sapiens, UniProt P42702); test: STAT3; assay type: cell-based
T2 sequence (P42702 45-1097): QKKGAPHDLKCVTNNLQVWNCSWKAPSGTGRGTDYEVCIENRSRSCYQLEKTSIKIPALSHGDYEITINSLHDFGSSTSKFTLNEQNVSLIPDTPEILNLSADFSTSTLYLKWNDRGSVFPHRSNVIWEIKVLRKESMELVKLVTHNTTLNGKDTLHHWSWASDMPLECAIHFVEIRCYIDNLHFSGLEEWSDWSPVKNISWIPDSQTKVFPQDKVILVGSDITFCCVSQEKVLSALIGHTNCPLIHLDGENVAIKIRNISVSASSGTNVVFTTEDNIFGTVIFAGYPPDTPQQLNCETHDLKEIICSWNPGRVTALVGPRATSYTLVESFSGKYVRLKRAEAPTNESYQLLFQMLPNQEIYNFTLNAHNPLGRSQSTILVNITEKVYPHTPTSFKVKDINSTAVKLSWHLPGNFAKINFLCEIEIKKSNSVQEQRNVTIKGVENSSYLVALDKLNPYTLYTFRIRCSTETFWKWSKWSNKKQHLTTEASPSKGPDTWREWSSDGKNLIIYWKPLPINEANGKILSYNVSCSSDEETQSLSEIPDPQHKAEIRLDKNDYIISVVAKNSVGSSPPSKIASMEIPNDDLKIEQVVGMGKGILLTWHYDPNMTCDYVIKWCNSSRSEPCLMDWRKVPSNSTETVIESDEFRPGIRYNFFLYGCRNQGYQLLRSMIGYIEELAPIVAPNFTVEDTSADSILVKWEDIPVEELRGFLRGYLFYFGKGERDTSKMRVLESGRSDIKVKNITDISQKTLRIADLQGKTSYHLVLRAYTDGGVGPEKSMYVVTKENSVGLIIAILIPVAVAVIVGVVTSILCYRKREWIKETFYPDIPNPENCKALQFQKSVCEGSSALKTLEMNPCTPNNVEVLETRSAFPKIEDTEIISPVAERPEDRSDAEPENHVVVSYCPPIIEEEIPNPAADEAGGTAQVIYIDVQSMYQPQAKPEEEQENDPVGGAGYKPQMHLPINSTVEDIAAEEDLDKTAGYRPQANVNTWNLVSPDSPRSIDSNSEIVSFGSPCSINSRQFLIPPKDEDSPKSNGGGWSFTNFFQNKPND

Row | Structure (SMILES) | IC50 [1] [µM] | IC50 [2] [µM]
1 | C[C@H](CCC(=O)O)[C@H]1CC[C@H]2[C@@H]3CC[C@@H]4C[C@H](O)CC[C@]4(C)[C@H]3C[C@H](O)[C@]12C [DCA] | 18.4 | ~6.2
2 | C[C@H](CCC(=O)NCC(=O)O)[C@H]1CC[C@H]2[C@@H]3[C@H](O)C[C@@H]4C[C@H](O)CC[C@]4(C)[C@H]3CC[C@]12C [GCDCA] | 50.6 | 
3 | C[C@H](CCC(=O)NCC(=O)O)[C@H]1CC[C@H]2[C@@H]3CC[C@@H]4C[C@H](O)CC[C@]4(C)[C@H]3CC[C@]12C [GLCA] | 23 | ~9.8
4 | C[C@H](CCC(=O)NCCS(=O)(=O)O)[C@H]1CC[C@H]2[C@@H]3[C@H](O)C[C@@H]4C[C@H](O)CC[C@]4(C)[C@H]3CC[C@]12C [TCDCA] | 38 | 

— doi:10.1101/2023.09.30.560269v1 (biorxiv, 2023)
